Results: patent US9416149B2, “Methods to modulate Rac1 import and to treat pulmonary fibrosis” (University of Iowa Research Foundation, priority 2013, dated 2016)

How the values were obtained:
Macrophages [1] = experiment: H2O2 generation in macrophages exposed to chrysotile asbestos (pHPA assay); format: cell-based
Experimental: (§1) Extracellular H2O2 production was determined fluorometrically, as previously described (He, C., et al., Mitochondrial Cu,Zn-Superoxide Dismutase Mediates Pulmonary Fibrosis by Augmenting H2O2 Generation. J Biol Chem, 2011. 286(17): p. 15597-607). Briefly, cells were incubated in phenol-red free Hanks' balanced salt solution supplemented with 6.5 mM glucose, 1 mM HEPES, 6 mM sodium bicarbonate, 1.6 mM pHPA, and 0.95 μg/ml HRP. Fluorescence of the pHPA-dimer was measured using a spectrofluorometer at excitation of 320 nm and emission of 400 nm. Mitochondrial H2O2 was measured by resuspending mitochondria in phenol-red free Hanks' balanced salt solution supplemented with 6.5 mM glucose, 1 mM HEPES, 6 mM sodium bicarbonate, 1.6 mM pHPA, 0.95 μg/ml HRP and 5 mM α-ketoglutarate.

Rac1 = experiment: Mitochondrial Rac1 import, immunoblot for Flag-Rac1 in isolated mitochondria of transfected macrophages; format: cell-based; settings: for localization of Rac1 to the mitochondria: Example 2, FIG. 8D
Experimental: (§2) Mitochondria were isolated as previously described (He, C., et al., Mitochondrial Cu,Zn-Superoxide Dismutase Mediates Pulmonary Fibrosis by Augmenting H2O2 Generation. J Biol Chem, 2011. 286(17): p. 15597-607).
(§3) Whole cells lysates and sub-cellular fractions were separated by SDS-PAGE and transferred to PVDF membranes. Immunoblot analyses on the membranes were performed with the designated antibodies followed by the appropriate secondary antibody cross-linked to HRP.
(§4) To determine if DGBP inhibits Rac1 import into mitochondria, we exposed macrophages to vehicle (water) or DGBP in cells transfected with an empty control or a wild-type Rac1 expression vector (pRK-Flag-Rac1). […] To confirm that DGBP reduced Rac1 import secondary to inhibiting geranylgeranylation, an immunoblot analysis for Rap 1A, which only recognizes non-geranylgeranylated proteins and is indicative of reduced GGPP levels was performed (Weivoda, M. M. and R. J. Hohl, The effects of direct inhibition of geranylgeranyl pyrophosphate synthase on osteoblast differentiation. J Cell Biochem, 2011. 112(6): p. 1506-13, Wasko, B. M., A. Dudakovic, and R. J. Hohl, Bisphosphonates induce autophagy by depleting geranylgeranyl diphosphate. J Pharmacol Exp Ther, 2011. 337(2): p. 540-6). […] To examine whether DGBP altered H2O2 levels, cells were treated similarly as above described with DGBP (10 mM).

[2] = Apparent toxicity at the concentrations and doses used in the studies; settings: in vitro or in vivo
Rap1A = experiment: Geranylgeranylation, immunoblot for non-geranylgeranylated Rap1A in macrophages; format: cell-based
Experimental: as §3, §4

THP-1 cells = experiment: Mitochondrial H2O2 generation in THP-1 cells exposed to chrysotile (pHPA assay); format: cell-based; settings: FIG. 11F, DGBP 10 μM overnight, chrysotile 10 μg/cm^2 for 1 h
Experimental: (§5) THP-1, MLE-12, and HLF-1 cell lines were obtained from American Type Culture Collection (Manassas, Va.). Cells were maintained in RPMI-1640, Hites, or F-12K media supplemented with fetal bovine serum and penicillin/streptomycin. All experiments were performed with media supplemented with 0.5% serum.
as §1
(§6) Mitochondria were isolated as previously described (He, C., et al., Mitochondrial Cu,Zn-Superoxide Dismutase Mediates Pulmonary Fibrosis by Augmenting H2O2 Generation. J Biol Chem, 2011. 286(17): p. 15597-607). […]

[3] = system: chrysotile-induced pulmonary fibrosis; experiment: Chrysotile asbestos-induced pulmonary fibrosis in mice, DGBP via subcutaneous osmotic pump; format: in vivo
Experimental: To determine the biological relevance of DGBP on oxidative stress in vivo, WT mice were exposed to asbestos (100 μg i.t.). The mice were treated with vehicle or DGBP via administration utilizing a subcutaneous osmotic pump. After 21 days, the mice were euthanized, and lung oxidative stress was determined by GSH assay.
(§7) Wild-type C57Bl/6 mice were from Jackson Laboratories (Bar Habor, Me.). The University of Iowa Institutional Animal Care and Use Committee approved all protocols. After equilibration, osmotic pumps (Alzet, Cupertino, Calif.) containing either vehicle (water) or DGBP (0.2 mg/kg/day) were implanted subcutaneously, as describe previously (Erickson, J. R., et al., A dynamic pathway for calcium-independent activation of CaMKII by methionine oxidation. Cell, 2008. 133(3): p. 462-74). Bleomycin (2.0 U/kg) or chrysotile ([…]) was administered intratracheally. Mice were euthanized and fibrosis determined as previously described (Osborn-Heaford, H. L., et al., Mitochondrial Rac1 GTPase Import and Electron Transfer from Cytochrome c Are Required for Pulmonary Fibrosis. The Journal of biological chemistry, 2012. 287(5): p. 3301-12, He, C., et al., Accelerated Development of Pulmonary Fibrosis via Cu,Zn-superoxide Dismutase-induced Alternative Activation of Macrophages. J Biol Chem, 2013. 288(28): p. 20745-57).
as §2
(§8) Lung tissue was dried to stable weight and acid hydrolyzed with 6N HCl for 24 h at 120° C. Hydroxyproline concentration normalized, to dry weight of the lung, was determined as described previously (Osborn-Heaford, H. L., et al., Mitochondrial Rac1 GTPase Import and Electron Transfer from Cytochrome c Are Required for Pulmonary Fibrosis. The Journal of biological chemistry, 2012. 287(5): p. 3301-12).
(§9) Reduced and oxidized glutathione in the lung were determined as described previously (He, C., et al., Mitochondrial Cu,Zn-Superoxide Dismutase Mediates Pulmonary Fibrosis by Augmenting H2O2 Generation. J Biol Chem, 2011. 286(17): p. 15597-607).
as §3
To determine if geranylgeranylation of Rac1 is associated with other forms of pulmonary fibrosis, the role of DGBP in modulating chrysotile-induced pulmonary fibrosis was tested. WT mice with subcutaneous osmotic pumps delivering vehicle or DGBP were exposed to chrysotile as previously described (He, C., et al., Mitochondrial Cu,Zn-Superoxide Dismutase Mediates Pulmonary Fibrosis by Augmenting H2O2 Generation. J Biol Chem, 2011. 286(17): p. 15597-607, Osborn-Heaford, H. L., et al., Mitochondrial Rac1 GTPase Import and Electron Transfer from Cytochrome c Are Required for Pulmonary Fibrosis. The Journal of biological chemistry, 2012. 287(5): p. 3301-12, Murthy, S., et al., Rac1-mediated Mitochondrial H2O2 Generation Regulates MMP-9 Gene Expression in Macrophages via Inhibition of SP-1 and AP-1. J Biol Chem, 2010. 285(32): p. 25062-73). It was first determined if DGBP altered mitochondrial Rac1 localization in BAL cells. Alveolar macrophages were obtained by BAL 21 days after chrysotile exposure. […] Lung oxidative stress was also evaluated. […]

[4] = system: bleomycin-induced pulmonary fibrosis; experiment: Bleomycin-induced pulmonary fibrosis in mice, DGBP via subcutaneous osmotic pump; format: in vivo
Experimental: as §7, §2, §8, §9, §3
Active TGF-β in BAL fluid was measured by ELISA (R&D, Minneapolis, Minn.), according to manufacturer's instructions.
Because bleomycin increased mitochondrial oxidative stress in alveolar macrophages in vivo, it was next evaluated if bleomycin modulates Rac1 mitochondrial import. Osmotic pumps containing either vehicle (water) or DGBP were implanted subcutaneously in WT mice. DGBP was delivered at a dose of 0.2 mg/kg/day. Mice were exposed to saline or bleomycin the following day, and BAL was performed 21 days later to obtain alveolar macrophages. Mitochondria were isolated to investigate Rac1 localization.

HLF-1 cells = experiment: Mitochondrial H2O2 generation in HLF-1 cells exposed to chrysotile (pHPA assay); format: cell-based; settings: FIG. 11H, DGBP 10 μM overnight, presence or absence of chrysotile
Experimental: as §5, §1, §6

Macrophages [5] = experiment: Mitochondrial H2O2 generation in macrophages exposed to chrysotile asbestos (pHPA assay); format: cell-based; settings: Example 1, FIG. 2; DGBP 10 mM; chrysotile asbestos 10 μg/cm^2; isolated mitochondria
Experimental: as §1, §2

[6] = system: bleomycin-induced pulmonary fibrosis; experiment: Progression of bleomycin-induced pulmonary fibrosis in mice, osmotic pumps installed seven days after bleomycin; format: in vivo
Experimental: as §7
Lung tissue was dried to stable weight and acid hydrolyzed with 6N HCl for 24 h at 120° C. […]

MLE-12 cells = experiment: Mitochondrial H2O2 generation in MLE-12 cells exposed to chrysotile (pHPA assay); format: cell-based; settings: FIG. 11G, DGBP 10 μM overnight, chrysotile 10 μg/cm^2 for 1 h
Experimental: as §5, §1, §6

## digeranyl bisphosphonate [DGBP]
Macrophages [1]; Example 1, FIG. 1, DGBP 10 mM, chrysotile asbestos 10 μg/cm^2
  H2O2 generation: significant reduction in H2O2 to control levels
Macrophages [1]; Example 2, FIG. 8F, DGBP 10 mM overnight, presence and absence of chrysotile 10 μg/cm^2, 90 min
  H2O2 levels: decreased H2O2 to control levels
Rac1; Example 1, FIG. 3A, chrysotile asbestos 10 μg/cm^2 for 1 h
  mitochondrial Rac1 import: inhibited mitochondrial Rac1 import in a dose-dependent manner
Rac1; 1 mM DGBP overnight, chrysotile 10 μg/cm^2 for 90 min
  localization of Rac1 to the mitochondria: Chrysotile induced localization of Rac1 to the mitochondria
Rac1; 10 mM DGBP overnight, presence or absence of chrysotile
  localization of Rac1 to the mitochondria: Rac1 was absent from the mitochondria
[2]
  apparent toxicity: not associated with apparent toxicity in vitro or in vivo
Rap1A; Example 1, FIG. 3B, whole cell lysates
  geranylgeranylation (Rap1A immunoblot): inhibition of geranylgeranylation
Rap1A; Example 2, FIG. 8E, 10 mM DGBP, isolated cytoplasm
  Rap1A geranylgeranylation: impaired Rap1A geranylgeranylation
THP-1 cells
  mitochondrial H2O2 generation: reduced chrysotile-induced H2O2 significantly at all time points
[3]; Example 1, FIG. 4, asbestos 100 μg i.t., after 21 days, vs vehicle
  lung oxidative stress (GSH assay): significant reduction in lung oxidative stress
[3]; Example 1, FIG. 5, chrysotile asbestos 100 μg i.t., 21 days, vs vehicle
  pulmonary fibrosis (hydroxyproline assay): significantly less pulmonary fibrosis
[3]; FIG. 11B, chrysotile, 21 days
  oxidized GSH (% GSSG) in the lung, vehicle relative to DGBP: 2.5 fold
[3]; FIG. 11D, chrysotile, after 21 days
  lung histology (Masson's trichrome): essentially normal
[3]; FIG. 11E, chrysotile, after 21 days, water vs DGBP
  lung hydroxyproline: confirmed by hydroxyproline assay
[4]; Example 1, FIG. 6, bleomycin 2.0 U/kg i.t., 21 days, vs vehicle
  pulmonary fibrosis (hydroxyproline assay): significantly less pulmonary fibrosis
[4]; FIG. 9B, DGBP 0.2 mg/kg/day, bleomycin 2.0 U/kg, BAL 21 days later
  immunoreactive Rac1 in alveolar macrophage mitochondria: significant reduction in immunoreactive Rac1 in mitochondria
[4]; FIG. 9B, DGBP 0.2 mg/kg/day, immunoblot
  non-geranylgeranylated Rap1A in BAL cells: non-geranylgeranylated Rap 1A was increased
[4]; FIG. 9C, bleomycin, after 21 days
  oxidized GSH (% GSSG) in lung, vehicle vs DGBP: significantly higher oxidized GSH (% GSSG) than the lungs of mice that received DGBP
[4]; FIG. 9D, bleomycin, DGBP 0.2 mg/kg/day, ELISA
  active TGF-β in BAL fluid, vehicle relative to DGBP: greater than 5 fold
[4]; FIG. 9F, bleomycin
  lung histology (Masson's trichrome): normal lung architecture
[4]; FIG. 9G, following bleomycin exposure, vs vehicle
  lung hydroxyproline: significantly less hydroxyproline
HLF-1 cells
  mitochondrial H2O2 generation: increased H2O2 in the presence or absence of chrysotile
Macrophages [5]
  mitochondrial H2O2 generation: abrogated asbestos-induced mitochondrial H2O2 generation below control levels
[6]; FIG. 10C, DGBP 0.2 mg/kg/day from seven days after bleomycin, 21 days after bleomycin
  lung collagen deposition (Masson's trichrome): small patches of collagen deposition, but there was significantly less collagen compared to mice that received vehicle
[6]; FIG. 10D, DGBP from seven days after bleomycin, vs vehicle
  lung hydroxyproline content: significantly less hydroxyproline
MLE-12 cells
  mitochondrial H2O2 generation: increased H2O2 generation in cells exposed to chrysotile
